The source of these data is ChEMBL document CHEMBL5226285, “The long and winding road of designing phosphodiesterase inhibitors for the treatment of heart failure” (Eur J Med Chem, 2021).

In assay [1] the target is T1, cAMP and cAMP-inhibited cGMP 3',5'-cyclic phosphodiesterase 10A (Homo sapiens, UniProt Q9Y233).
The target of assay [2] is Dual specificity calcium/calmodulin-dependent 3',5'-cyclic nucleotide phosphodiesterase 1B (Homo sapiens, UniProt Q01064).
Description: Inhibition of PDE1B (unknown origin)
The target in assay [3] is T2, cGMP-specific 3',5'-cyclic phosphodiesterase (Homo sapiens, UniProt O76074).
Description: Inhibition of PDE5A1 (unknown origin) using FAM-cGMP as substrate incubated for 60 mins by IMAP-fluorescence polarization assay
Assay [4] concerns the target T3, Acetylcholinesterase (Rattus norvegicus, UniProt P37136).
T3 sequence (P37136 whole entry): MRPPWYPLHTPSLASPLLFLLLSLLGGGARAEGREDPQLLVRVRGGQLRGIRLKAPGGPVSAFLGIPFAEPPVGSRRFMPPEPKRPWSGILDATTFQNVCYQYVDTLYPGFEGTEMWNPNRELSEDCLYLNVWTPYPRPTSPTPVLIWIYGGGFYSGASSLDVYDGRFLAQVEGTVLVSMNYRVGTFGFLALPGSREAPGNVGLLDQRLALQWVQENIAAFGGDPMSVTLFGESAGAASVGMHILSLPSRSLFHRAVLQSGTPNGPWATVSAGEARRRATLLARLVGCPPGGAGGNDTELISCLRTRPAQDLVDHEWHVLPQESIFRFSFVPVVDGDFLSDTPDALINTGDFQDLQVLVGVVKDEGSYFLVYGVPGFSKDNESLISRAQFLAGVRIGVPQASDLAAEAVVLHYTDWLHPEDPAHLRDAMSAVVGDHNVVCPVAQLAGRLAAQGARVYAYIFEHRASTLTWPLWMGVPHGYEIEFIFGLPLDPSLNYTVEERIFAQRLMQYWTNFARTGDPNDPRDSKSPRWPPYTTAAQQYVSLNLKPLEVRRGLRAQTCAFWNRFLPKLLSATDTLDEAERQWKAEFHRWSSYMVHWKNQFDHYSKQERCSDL
Description: Inhibition of rat cortex AChE using acetylthiocholine iodide as substrate incubated for 20 mins by DTNB-reagent based Ellman's method

Assay [5] deals with T2, cGMP-specific 3',5'-cyclic phosphodiesterase. This is another data set of the same source.
Description: Inhibition of human recombinant PDE5A using (Fl)-cAMP and TAMRA-cGMP as substrate incubated for 60 mins by IMAP-fluorescence polarization assay
For assay [6], the target named is T4, 3',5'-cyclic-AMP phosphodiesterase 4B (Homo sapiens, UniProt Q07343).
Description: Inhibition of human recombinant PDE4B1 using FAM-cAMP as substrate incubated for 20 mins
Assay [7] addresses T4, 3',5'-cyclic-AMP phosphodiesterase 4B. This is another data set of the same source.
Description: Displacement of [3H]-cAMP from full-length recombinant human PDE4B1 by fluorescence polarisation assay
The target in assay [8] is 3',5'-cyclic-AMP phosphodiesterase 4D (Homo sapiens, UniProt Q08499).
Description: Displacement of [3H]-cAMP from full-length recombinant human PDE4D7 by fluorescence polarisation assay
The target of assay [9] is High affinity cGMP-specific 3',5'-cyclic phosphodiesterase 9A (Homo sapiens, UniProt O76083).
Description: Inhibition of PDE9A (unknown origin)
The target in assay [10] is Phosphodiesterase 4 (Homo sapiens, UniProt P27815+Q08499+Q07343+Q08493). Format: protein assay.
Description: Inhibition of PDE4 (unknown origin)
Assay [11] deals with T1, cAMP and cAMP-inhibited cGMP 3',5'-cyclic phosphodiesterase 10A. The source holds these as a separate data set.
Description: Inhibition of PDE10A (unknown origin)
Assay [12] has as its target High affinity cAMP-specific and IBMX-insensitive 3',5'-cyclic phosphodiesterase 8A (Homo sapiens, UniProt O60658). The experiment in a line: biochemical. Format: cell-based, Sf9.
Description: Inhibition of human recombinant PDE8A expressed in baculovirus infected Sf9 insect cells
Assay [13] concerns the target cGMP-dependent 3',5'-cyclic phosphodiesterase (Homo sapiens, UniProt O00408).

T4 sequence (Q07343 whole entry): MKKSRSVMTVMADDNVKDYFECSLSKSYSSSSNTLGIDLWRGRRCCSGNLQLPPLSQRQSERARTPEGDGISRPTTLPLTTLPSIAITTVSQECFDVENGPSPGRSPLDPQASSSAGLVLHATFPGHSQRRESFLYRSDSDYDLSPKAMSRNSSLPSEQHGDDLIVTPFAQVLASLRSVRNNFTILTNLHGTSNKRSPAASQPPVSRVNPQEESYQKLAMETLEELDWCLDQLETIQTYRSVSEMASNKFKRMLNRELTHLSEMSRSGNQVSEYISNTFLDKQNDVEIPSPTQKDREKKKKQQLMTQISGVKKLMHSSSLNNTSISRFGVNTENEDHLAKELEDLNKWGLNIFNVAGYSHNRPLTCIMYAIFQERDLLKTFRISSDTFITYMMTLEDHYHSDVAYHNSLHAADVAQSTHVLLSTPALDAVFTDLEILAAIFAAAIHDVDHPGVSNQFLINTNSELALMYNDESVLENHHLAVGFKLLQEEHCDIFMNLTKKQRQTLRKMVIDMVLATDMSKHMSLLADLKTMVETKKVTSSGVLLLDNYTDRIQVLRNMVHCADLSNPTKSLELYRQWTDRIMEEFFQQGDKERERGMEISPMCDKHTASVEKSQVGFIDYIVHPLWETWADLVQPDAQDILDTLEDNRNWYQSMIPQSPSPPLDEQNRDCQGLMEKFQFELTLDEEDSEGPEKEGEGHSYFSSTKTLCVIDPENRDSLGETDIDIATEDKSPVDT
Sequence of Dual specificity calcium/calmodulin-dependent 3',5'-cyclic nucleotide phosphodiesterase 1B (Q01064 whole entry): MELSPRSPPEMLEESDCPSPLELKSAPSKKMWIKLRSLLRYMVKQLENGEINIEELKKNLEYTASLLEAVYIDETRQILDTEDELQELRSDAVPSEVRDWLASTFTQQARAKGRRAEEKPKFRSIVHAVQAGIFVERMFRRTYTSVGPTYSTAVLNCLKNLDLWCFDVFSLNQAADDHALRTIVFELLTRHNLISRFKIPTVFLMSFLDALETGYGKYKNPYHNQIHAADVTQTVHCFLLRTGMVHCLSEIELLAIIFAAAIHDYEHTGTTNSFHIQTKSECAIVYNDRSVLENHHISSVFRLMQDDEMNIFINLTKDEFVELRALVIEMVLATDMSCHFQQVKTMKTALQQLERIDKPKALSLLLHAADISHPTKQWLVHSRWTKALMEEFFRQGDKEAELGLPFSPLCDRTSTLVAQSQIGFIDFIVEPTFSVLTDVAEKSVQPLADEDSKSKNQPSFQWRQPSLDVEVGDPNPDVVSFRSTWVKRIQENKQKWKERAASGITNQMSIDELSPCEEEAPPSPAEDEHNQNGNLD
T1 sequence (Q9Y233 whole entry): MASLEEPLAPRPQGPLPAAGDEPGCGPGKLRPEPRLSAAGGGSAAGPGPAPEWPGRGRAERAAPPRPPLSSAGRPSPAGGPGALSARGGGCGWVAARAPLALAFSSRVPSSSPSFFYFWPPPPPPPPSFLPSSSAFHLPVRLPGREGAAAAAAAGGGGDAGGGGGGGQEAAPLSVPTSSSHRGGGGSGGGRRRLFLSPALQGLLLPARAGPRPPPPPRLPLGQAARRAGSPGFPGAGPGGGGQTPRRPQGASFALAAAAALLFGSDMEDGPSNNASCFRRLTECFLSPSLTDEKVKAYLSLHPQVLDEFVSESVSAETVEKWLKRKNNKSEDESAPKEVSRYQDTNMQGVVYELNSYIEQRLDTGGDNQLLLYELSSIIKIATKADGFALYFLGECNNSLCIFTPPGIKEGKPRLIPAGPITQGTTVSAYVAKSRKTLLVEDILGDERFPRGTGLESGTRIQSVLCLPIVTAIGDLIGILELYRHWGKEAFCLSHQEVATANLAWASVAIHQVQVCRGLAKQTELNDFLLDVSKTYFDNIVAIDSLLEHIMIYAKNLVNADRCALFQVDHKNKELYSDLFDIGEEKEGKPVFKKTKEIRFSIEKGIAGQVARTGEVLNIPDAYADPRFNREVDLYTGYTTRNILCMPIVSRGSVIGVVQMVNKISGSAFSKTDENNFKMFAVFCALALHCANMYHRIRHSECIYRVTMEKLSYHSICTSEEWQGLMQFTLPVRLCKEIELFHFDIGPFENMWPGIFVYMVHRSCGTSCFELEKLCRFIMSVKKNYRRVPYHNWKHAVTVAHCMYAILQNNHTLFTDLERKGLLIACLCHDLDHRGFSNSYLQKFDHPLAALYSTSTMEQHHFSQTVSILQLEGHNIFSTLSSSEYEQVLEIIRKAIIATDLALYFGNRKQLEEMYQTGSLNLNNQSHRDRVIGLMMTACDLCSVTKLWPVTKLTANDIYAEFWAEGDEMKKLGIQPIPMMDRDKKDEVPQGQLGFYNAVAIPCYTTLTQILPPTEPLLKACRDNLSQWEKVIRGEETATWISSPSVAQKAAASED
Sequence of 3',5'-cyclic-AMP phosphodiesterase 4D (Q08499 whole entry): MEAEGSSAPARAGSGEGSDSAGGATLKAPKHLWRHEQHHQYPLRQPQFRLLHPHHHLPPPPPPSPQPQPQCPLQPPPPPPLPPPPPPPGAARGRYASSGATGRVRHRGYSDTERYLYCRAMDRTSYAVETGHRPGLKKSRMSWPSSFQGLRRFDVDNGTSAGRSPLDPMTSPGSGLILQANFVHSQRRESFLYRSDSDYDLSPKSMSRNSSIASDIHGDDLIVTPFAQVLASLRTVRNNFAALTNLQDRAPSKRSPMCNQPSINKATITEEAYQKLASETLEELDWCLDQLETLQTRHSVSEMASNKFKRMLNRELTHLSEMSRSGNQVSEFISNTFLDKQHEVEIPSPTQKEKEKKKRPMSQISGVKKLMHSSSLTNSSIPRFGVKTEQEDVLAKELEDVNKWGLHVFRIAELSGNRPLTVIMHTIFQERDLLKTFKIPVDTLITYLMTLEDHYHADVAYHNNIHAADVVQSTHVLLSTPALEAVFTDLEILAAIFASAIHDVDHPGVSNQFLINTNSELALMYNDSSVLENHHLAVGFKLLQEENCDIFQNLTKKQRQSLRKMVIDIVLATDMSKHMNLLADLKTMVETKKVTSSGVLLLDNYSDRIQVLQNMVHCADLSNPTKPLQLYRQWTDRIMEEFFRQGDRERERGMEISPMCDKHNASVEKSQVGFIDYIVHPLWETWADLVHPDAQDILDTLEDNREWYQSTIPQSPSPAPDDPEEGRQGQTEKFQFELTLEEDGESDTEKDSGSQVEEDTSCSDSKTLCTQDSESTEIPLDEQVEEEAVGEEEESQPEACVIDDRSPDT
Sequence of High affinity cGMP-specific 3',5'-cyclic phosphodiesterase 9A (O76083 whole entry): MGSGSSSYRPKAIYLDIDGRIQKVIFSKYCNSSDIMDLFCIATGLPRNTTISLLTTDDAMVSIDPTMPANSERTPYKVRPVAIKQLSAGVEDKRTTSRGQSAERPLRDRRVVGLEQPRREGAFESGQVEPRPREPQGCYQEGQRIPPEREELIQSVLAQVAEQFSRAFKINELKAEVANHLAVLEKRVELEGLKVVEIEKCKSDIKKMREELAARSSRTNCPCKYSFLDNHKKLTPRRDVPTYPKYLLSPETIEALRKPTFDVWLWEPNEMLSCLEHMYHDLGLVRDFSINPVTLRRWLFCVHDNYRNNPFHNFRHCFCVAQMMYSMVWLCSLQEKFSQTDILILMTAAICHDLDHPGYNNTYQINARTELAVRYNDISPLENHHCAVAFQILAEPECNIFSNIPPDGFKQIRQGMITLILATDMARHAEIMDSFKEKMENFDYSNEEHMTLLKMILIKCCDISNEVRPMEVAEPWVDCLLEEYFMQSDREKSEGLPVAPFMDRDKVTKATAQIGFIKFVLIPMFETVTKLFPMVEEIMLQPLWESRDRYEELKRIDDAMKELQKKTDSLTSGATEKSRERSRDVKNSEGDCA
Sequence of cGMP-dependent 3',5'-cyclic phosphodiesterase (O00408 whole entry): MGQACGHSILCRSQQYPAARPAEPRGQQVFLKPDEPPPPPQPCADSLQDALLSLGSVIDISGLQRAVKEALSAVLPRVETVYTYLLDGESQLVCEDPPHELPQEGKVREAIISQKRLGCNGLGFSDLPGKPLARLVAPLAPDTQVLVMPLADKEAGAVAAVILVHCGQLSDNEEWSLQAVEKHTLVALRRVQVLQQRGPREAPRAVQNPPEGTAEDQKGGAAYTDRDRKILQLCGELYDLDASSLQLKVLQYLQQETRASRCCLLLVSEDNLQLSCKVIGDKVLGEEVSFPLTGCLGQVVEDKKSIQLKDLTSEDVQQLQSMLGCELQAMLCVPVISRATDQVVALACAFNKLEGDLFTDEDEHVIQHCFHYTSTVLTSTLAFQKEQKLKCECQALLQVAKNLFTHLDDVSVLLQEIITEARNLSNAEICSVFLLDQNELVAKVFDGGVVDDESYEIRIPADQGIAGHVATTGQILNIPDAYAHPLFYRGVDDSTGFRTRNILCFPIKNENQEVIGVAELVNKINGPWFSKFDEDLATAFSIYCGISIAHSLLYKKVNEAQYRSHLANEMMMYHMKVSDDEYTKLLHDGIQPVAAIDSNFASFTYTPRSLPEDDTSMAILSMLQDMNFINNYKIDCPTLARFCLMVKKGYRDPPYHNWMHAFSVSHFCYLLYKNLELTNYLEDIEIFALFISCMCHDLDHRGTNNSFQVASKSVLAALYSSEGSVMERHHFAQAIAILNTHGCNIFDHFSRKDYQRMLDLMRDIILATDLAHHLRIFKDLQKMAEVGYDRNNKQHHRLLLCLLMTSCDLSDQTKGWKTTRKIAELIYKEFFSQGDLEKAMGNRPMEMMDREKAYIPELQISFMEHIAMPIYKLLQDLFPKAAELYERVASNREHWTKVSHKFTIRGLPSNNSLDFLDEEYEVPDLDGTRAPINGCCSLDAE

`CCCCOc1ccc(F)c(-c2nc(C)c3nnc4ccc(OCCF)nc4n23)c1`: the IC50 in assay [1] is over 1000 nM.
For `COc1cc2ncnc(C(C)c3cccc(Cl)c3)c2cc1OC` (centres undefined), in assay [2], the IC50 was found to be 130 nM.
Consider `O=C1[C@@H]2Cc3c([nH]c4ccccc34)[C@@H](c3ccc4c(c3)OCO4)N2C(=O)CN1CCC1CCN(Cc2ccccc2)CC1`, for which the IC50 in [3] was determined as 32 nM; in assay [4], 1530 nM.
With `CCCN(CCC)c1ncnc2c(OC)c(OC)c(OC)cc12`, the IC50 in [2] was 219 nM.
`CCN1CC(=O)N2[C@H](c3ccc(Cl)cc3)c3[nH]c4ccccc4c3C[C@@H]2C1=O`: the midpoint of inhibition in assay [5], the IC50, lay at 3 nM.
For the compound `COc1ccc([C@H]2CCN3C(=O)NC[C@H]23)cc1OC1CCCC1`, it took 27 nM to reach half-maximal inhibition in [6] (IC50).
Take `O=C1NC[C@@H]2[C@@H](c3ccc(OC(F)F)c(OCC4CC4)c3)CCN12`: half-maximal inhibition in [6] (IC50) was put at 18 nM.
`N#CC(c1ccc(OC(F)F)c(OC2CCCC2)c1)c1ccc(Cl)nn1` (centres undefined): the figures for the IC50 in assay [7] and in assay [8] were 290 nM and 310 nM, respectively.
Regarding `C[C@@H](Nc1nc2c(cnn2C2CCCC2)c(=O)n1Cc1ccccc1)c1ccc(Cl)cc1`, the IC50 in assay [9] is over 10000 nM.
As to `CC(=O)OCCOc1nc(Oc2ccc3c(c2)COB3O)ccc1C#N`, in assay [10], the IC50 stood at 0.7 nM.
With `COc1ccc([C@@H]2c3[nH]c4ccccc4c3C[C@H]3C(=O)N(CCC4CCN(Cc5ccccc5)CC4)CC(=O)N23)cc1`, the IC50 came out at 15 nM in assay [3] and 3230 nM in assay [4].
`COc1cc2ncnc(N3CC[C@@H](Oc4cnc5ccccc5n4)C3)c2cc1OC` showed a 50% inhibitory concentration (IC50) in assay [11] of 6 nM.
For `O=C1[C@H]2Cc3c([nH]c4ccccc34)[C@@H](c3ccc4c(c3)OCO4)N2C(=O)CN1CCC1CCN(Cc2ccccc2)CC1`, the IC50 in [3] was 36 nM; in [4], 153 nM.
Turning to `OCCN(CCO)c1nc(N2CCCCC2)c2nc(N(CCO)CCO)nc(N3CCCCC3)c2n1` [DIPYRIDAMOLE], in assay [12], inhibition was half-maximal at 4000 nM (IC50).
On to `Cc1ncn(-c2nc3c(C(=O)N[C@@H](c4ccc(OC(F)(F)F)cc4)C(C)(C)O)cnn3cc2C)n1`, for which it took 0.51 nM to reach half-maximal inhibition in [13] (IC50).

What is called IC50 is the point on the concentration scale where inhibition reaches its midpoint.
